According to patent publication US20240417734A1, “Methods for Treating Glioblastoma by Targeting Oncomirs” (University of Connecticut, priority 2021, published 2024):

Legend:
[1] = test system: U87 cells; test: Cell viability assay, U87; type: cell-based, human; details: BNP 0.5 mg/mL, TMZ 20 μM
Protocol: Cells were seeded in 96-well plates at a density of 5,000 cells/well and treated with increasing concentrations of NP formulations. Cell viability was evaluated by CellTiter-Glo Luminescent Cell Viability Assay (Promega) after 48 h, 72 h treatment. Luminescence was measured using a plate reader (SpectraMax M5) and relative cell viability was normalized to the viability of untreated cells. For TMZ involved combination studies, cells were seeded in 96-well plates at a density of 1,000 cells/well and exposed to sγPNA/NNP and sγPNA/BNP. After 72 h of treatments, NPs were removed and TMZ was added to the wells. Cell viability was measured as described above after 6 days of treatment.

[2] = test system: intracranial U87 tumors; test: Survival study, intracranial U87 tumors; type: in vivo, mice; details: NPs by CED 6 days post inoculation, TMZ 25 mg/kg i.p.
Protocol: (§1) Animals were anaesthetized using a mixture of ketamine (100 mg/kg) and xylazine (10 mg/kg) via intraperitoneal injection. Anesthetized animals were then placed in a stereotaxic frame and sterilized the scalp with betadine and alcohol. To expose the coronal and sagittal sutures, a midline scalp incision was created, and a burr hole was drilled 2 mm lateral to the sagittal suture and 0.5 mm anterior to the bregma. U87 or G22 cells ([…]) in 3 μL PBS were injected into the right stratum over 3 min using a 10-μL Hamilton syringe. The animal was left 5 min for tissue equilibration before and after infusion. When infusion was finished, the burr hole was filled with bone wax and skin was stapled and cleaned.
(§2) CED in tumor bearing mice was similar to tumor inoculation by reopening the burr hole used for tumor inoculation. A micro-infusion pump (World Precision Instruments) was used to infuse 6 μL of NPs at a rate of […].
(§3) Tumors grew for 6 days before the administration of treatment. Intracranial CED of sγPNA/BNP was conducted following the same surgical procedure as described. TMZ (25 mg/kg) in PBS was administered intraperitoneally on day 7. Animals were monitored daily and weighed every week. […] Total RNA in the tumor and contralateral hemisphere was isolated using mirVana miRNA Isolation Kit and analyzed by real-time PCR detection system as previously described.

[3] = test system: patient (G22) derived intracranial gliomas; test: Survival study, patient-derived G22 orthotopic tumors; type: in vivo, mice; details: G22 orthotopic model; single dose TMZ 25 mg/kg
Protocol: as §1, §2, §3

## Cn1nnc2c(C(N)=O)ncn2c1=O [TMZ, Temozolomide]
[1]
  Cell viability/100: 0.66
[1]; Homo sapiens, U-87 MG, read-out: Cell viability (% of control)
  viability at 20 µM: 66%
[2]
  Median survival: 81 days
[3]
  Median survival: 79 days
